Where “and” joins values, the source holds several entries; their conditions need not be identical. Equal values may be shown once.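 Five concentrations, 48 hours, 96-well plates. Here, GI50 denotes the concentration required for 50% inhibition of growth. At the TGI there is no net growth.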
Key:
Assay in all cases: NCI tumour cell line growth inhibition, 48 h
MDA-N = test system: MDA-N
DLD-1 colon = test system: DLD-1 colon
DMS 114 small cell lung = test system: DMS 114 small cell lung
HOP-18 NSCLC = test system: HOP-18 NSCLC
KM20L2 colon = test system: KM20L2 colon
LXFL 529 NSCLC = test system: LXFL 529 NSCLC
SNB-78 CNS = test system: SNB-78 CNS
XF 498 CNS = test system: XF 498 CNS
RXF-631 renal = test system: RXF-631 renal
P388 leukemia = test system: P388 leukemia
P388/ADR leukemia = test system: P388/ADR leukemia
SN12K1 renal = test system: SN12K1 renal

Structure (SMILES)	TGI (MDA-N) [µM]	GI50 (DLD-1 colon) [µM]	TGI (DLD-1 colon) [µM]	TGI (DMS 114 small cell lung)	GI50 (HOP-18 NSCLC) [µM]	TGI (HOP-18 NSCLC) [µM]	GI50 (KM20L2 colon) [µM]	TGI (KM20L2 colon)	TGI (LXFL 529 NSCLC) [µM]	GI50 (SNB-78 CNS) [µM]	TGI (SNB-78 CNS) [µM]	TGI (XF 498 CNS)	GI50 (DMS 114 small cell lung) [µM]	GI50 (LXFL 529 NSCLC) [µM]	GI50 (RXF-631 renal) [µM]	TGI (RXF-631 renal) [µM]	GI50 (XF 498 CNS) [µM]	TGI (P388 leukemia) [µM]	TGI (P388/ADR leukemia) [µM]	TGI (SN12K1 renal) [µM]
OCCNc1ncnc2c1ncn2C1OC(CO)C(O)C1O (stereo unspecified)	> 100																			
C/C(=N\NC(=O)c1ccccc1O)c1cccc(/C(C)=N/NC(=O)c2ccccc2O)n1	> 100	2.62	> 100	36.9 µM	1.84	39.4	1.13	> 100 µM	53.1	46.2	> 100	46.7 µM								
CCC[CH2][Ge]([CH2]CCC)([CH2]CCC)[O]C(=O)C(OC)c1ccccc1 (stereo unspecified)		23.7	> 100	34.4 µM	> 100	> 100	17.2	> 100 µM	> 100	> 100	> 100	> 100 µM	7.56	15.6	29.4	> 100	41.1			
Cc1ccc(C2(O)CC(c3ccc([N+](=O)[O-])o3)=NN2C(=O)COc2ccccc2Cl)cc1 (stereo unspecified)			> 100	80.7 µM		> 100		> 60 µM	49.2		> 100	> 100 µM				> 55.1				
Nc1ncnc2c(C3OC(CO)C(O)C3O)[nH]nc12 (stereo unspecified)			10.8	1.36 µM		0.144		8.26 µM			40.4	1.34 µM						51.7	123	1.88
NCCCC1NC(=O)/C(=C(O)/C=C/C2CCC[C@@H]2CC2SCCS2)C1=O (stereo partly specified)			> 100	> 100 µM		> 100		> 100 µM	> 100											
CCOC(=O)C(Cc1ccccc1)NC(=O)OC(C)(C)C (stereo unspecified)			> 100	> 100 µM					> 100		> 100	> 100 µM				> 100				
CCc1ccc(Nc2cc(=O)[nH]c(=S)n2C)cc1			> 100	> 100 µM		> 100		> 100 µM	> 100		> 100	> 100 µM								
Nc1ncnc2c(C3OC(CO)C(O)C3O)scc12 (stereo unspecified)				0.548 µM and 0.31 µM		4.54		1.07 µM and 1.64 µM	12.9			0.353 µM and 0.581 µM		0.365						
CN(C)CC/C(=N\Nc1ccc(Cl)c(Cl)c1)c1ccccc1			10	3.86 µM		5.76		3.17 µM	2.9		5.65									
CCC[CH2][Sn]([CH2]CCC)([O]C(=O)c1cc(OC)c(OC)cc1OC)[O]C(=O)c1cc(OC)c(OC)cc1OC		1.51	2.92	1.95 µM					1.22	0.68	2.41	2.16 µM	0.492	0.346	1.37	2.93	0.767			
Cc1ccccc1-c1c(N)nc(N)nc1C(=O)Nc1nccs1			> 100	> 100 µM		> 100		> 100 µM	> 100		> 100	> 100 µM				> 100				
CCC1(C(=O)OC)CCc2c(OC)ccc(OC)c2C1=O (stereo unspecified)			> 100	> 100 µM		> 100		> 100 µM	> 100		> 100	> 100 µM				> 100				
O=C1[C@@H]2C3SC(c4ccccc43)[C@@H]2C(=O)N1c1ccccc1			> 100	> 100 µM		> 100		> 100 µM	> 100		> 100	> 100 µM								
O=C(CC(=O)Nc1ccccc1O)Nc1ccccc1O			40.3	12.6 µM		34.2		> 100 µM	63.9		> 100					49.9				
COc1cc(C(=O)C/C(CCC(=O)Nc2ccc(Cl)cc2Cl)=N/NC(=O)C(N)=O)ccc1O			> 100	> 100 µM		> 100		> 100 µM	> 100		> 100	> 100 µM				> 100				

From PubChem BioAssay (NCI)
